Measurements as given in the NIST ThermoML archive (doi:10.1016/j.fluid.2013.01.003).
Numbers after ± are expanded uncertainties.

Conditions: 101.33 kPa, Liquid; for electrical conductivity: Alternating current cell with electrodes; for viscosity: Falling or rolling sphere viscometry; for mass density: Vibrating tube method

O=S(=O)([N-]S(=O)(=O)C(F)(F)F)C(F)(F)F.OCC[n+]1ccccc1
Conditions | electrical conductivity [S/m] | mass density [kg/m3] | viscosity [mPa·s]
273.15 K | 0.0435 ± 0.04 | 1614.7 ± 0.8 | 645 ± 56
278.15 K | 0.0655 ± 0.04 | 1609.2 ± 0.8 | 421.9 ± 30
283.15 K | 0.0945 ± 0.04 | 1604 ± 0.8 | 285.8 ± 17
288.15 K | 0.132 ± 0.04 | 1599.44 ± 0.78 | 200.9 ± 9.5
293.15 K | 0.178 ± 0.04 | 1594.47 ± 0.77 | 145.7 ± 5.3
298.15 K | 0.233 ± 0.04 | 1589.51 ± 0.77 | 108.7 ± 2.9
303.15 K | 0.299 ± 0.04 | 1584.59 ± 0.76 | 83.19 ± 1.5
313.15 K | 0.461 ± 0.04 | 1574.82 ± 0.75 | 52.03 ± 0.28
323.15 K | 0.668 ± 0.04 | 1565.16 ± 0.74 | 34.91 ± 0.32
333.15 K | 0.912 ± 0.04 | 1555.59 ± 0.73 | 24.77 ± 0.23
343.15 K | 1.2 ± 0.04 | 1546.08 ± 0.72 | 18.37 ± 0.17
353.15 K | 1.52 ± 0.04 | 1536.66 ± 0.71 | 14.12 ± 0.13
363.15 K | – | 1527.29 ± 0.7 | 11.18 ± 0.11
